Test results reported in patent publication US20180325106A1, “METHOD OF RETARDING AN ETHYLENE RESPONSE” (CURTIN UNIVERSITY OF TECHNOLOGY, priority 2015, published 2018).
Where two headings read alike, the source gives them in different places.

Assays:
[1] = test system: 'Tegan Blue' Japanese plum fruit; experiment: Climacteric ethylene production in 'Tegan Blue' plum fruit after fumigation; format: in vivo; conditions: for level of climacteric ethylene, suppressed, fold in comparison to the solely ethylene treated fruit: then ethylene 10 μL L^-1 24 hr, 'Tegan Blue' plum, P≤0.05
Experimental: Mature ‘Tegan Blue’ and ‘Fortune’ Japanese plum and ‘Arctic Pride’ nectarine fruits of uniform size and maturity, free from visual blemishes and diseases were harvested in early morning from a commercial orchard in Western Australia. Following the harvest, the fruit were brought to the Horticulture Research Laboratory, Curtin University, using a temperature controlled vehicle at 20-25° C. The fruit were treated by fumigation with 0 to 100 nLL^−1 of BC and 1000 nLL^−1 of 1-MCP (Tegan Blue plum) for 18 hr at ambient conditions (20±1° C. and 65±5% RH) by using hermetically sealed plastic containers of 60 L volume. Whatman filter paper (number 2) soaked with specific concentrations of BC and 1-MCP were kept along with the fruit and 30 g of soda lime inside each container. A small battery operated fan was used to ensure equal distribution of the vapours from the chemicals. Half of the treated fruit was exposed to ethylene (10 μL L^−1) for 24 hr following BC and 1-MCP treatment.
The endogenous level of ethylene was determined by using the Sensor Sense (Sensor sense B. V, Nijmegen, The Netherlands). The Sensor Sense includes an ETD 300 ethylene detector, a set of valve controllers with an option of six valves connected to six separate cuvettes [1.0 L air-tight jar, fitted with a rubber septum (SubaSeal®, Sigma-Aldrich Co., St. Louis, USA)]. The continuous flow method was used with coarse mode (conversion factor 99818, capacity to measure ethylene concentration at 0-500 ppm, sensitivity at <1%) of analysis. Each sample was run for 20 minutes with a flow rate of 4.0 L hour^−1 and the average reading of last 15 minutes was considered to calculate the concentration of ethylene and expressed as μmol […] h^−1.
(§1) The experimental data were analysed following one-way analysis of variance (ANOVA) by using Genstat 13 (release 13.1; Lawes Agricultural Trust, Rothamsted Experimental Station, Harpenden, UK). The effects of various treatments and their interactions were assessed and least significant differences (Fisher's LSD) were calculated by F test at 5% level of significance.

[2] = test system: 'Tegan Blue' Japanese plum fruit; experiment: Climacteric respiration (CO2 production) in 'Tegan Blue' plum fruit; format: in vivo
Experimental: (§2) Mature ‘Tegan Blue’ and ‘Fortune’ Japanese plum and ‘Arctic Pride’ nectarine fruits of uniform size and maturity, free from visual blemishes and diseases were harvested in early morning from a commercial orchard in Western Australia. Following the harvest, the fruit were brought to the Horticulture Research Laboratory, Curtin University, using a temperature controlled vehicle at 20-25° C. The fruit were treated by fumigation with 0 to 100 nLL^−1 of BC and 1000 nLL^−1 of 1-MCP (Tegan Blue plum) for 18 hr at ambient conditions (20±1° C. and 65±5% RH) by using hermetically sealed plastic containers of 60 L volume. […]
(§3) Respiration rate was determined as carbon dioxide (CO2) production from the fruit during ripening period a using CO2 analyser. […] The respiration rate was calculated on the basis of the peak areas of 2.0 mL gas sample and CO2 standard (8.52±0.17%) and expressed as mmoL CO2 […] h^−1.
as §1

[3] = test system: 'Arctic Pride' nectarine fruit; experiment: Climacteric ethylene production in 'Arctic Pride' nectarine fruit after fumigation; format: in vivo; conditions: 50 nLL^-1 fumigation, then ethylene 10 μL L^-1
Experimental: as §2
The endogenous level of ethylene was determined by using the Sensor Sense (Sensor sense B. V, Nijmegen, The Netherlands). […] Each sample was run for 20 minutes with a flow rate of 4.0 L hour^−1 and the average reading of last 15 minutes was considered to calculate the concentration of ethylene and expressed as μmol […] h^−1.
as §1

[4] = test system: WX17 wax flower; experiment: Flower/bud abscission in WX17 wax flower; format: in vivo, Chamelaucium Desf.; conditions: 100 nLL^-1 fumigation followed by ethylene 10 μLL^-1
Experimental: (§4) To evaluate the effects of BC and NC on flower abscission, flowering stems of Wax flower (Chamelaucium Desf.) (WX17, WX73 and WX107) were collected from mature bushes grown at Department of Agriculture and Food Western Australia (DAFWA), Perth (31° 58′ 55″ S/115° 51′ 47″ E). Collected stems were immediately placed upright in buckets with water and recut at 20-25 cm in length (from the cut end to the most extreme opened-flowers). The flower stalks were treated similarly as the fruits with BC (0-100 nLL^−1) or NC (0-100 nLL^−1) and ethylene. The experiments were laid out by following CRD design, having five replications for each treatment and five stalks in each replication. During the treatment period, the flower stalks were placed in small plastic bottles with distilled water. A cone made of nylon mesh was placed at the base of the stalks to check the number of abscised flowers. […]
as §1

[5] = Stability at room temperature; format: physicochemical
[6] = test system: 'Arctic Pride' nectarine fruit; experiment: Climacteric respiration (CO2 production) in 'Arctic Pride' nectarine fruit; format: in vivo
Experimental: as §2, §3, §1

[7] = Solubility in water; format: physicochemical
[8] = test system: WX73 wax flower; experiment: Flower/bud abscission in WX73 wax flower; format: in vivo, Chamelaucium Desf.
Experimental: as §4, §1

[9] = gas at room temperature; background statement; cited from earlier work

SMILES: c1ccc2c(c1)C2 [BC, benzocyclopropene]
- level of climacteric ethylene, suppressed, fold in comparison to the solely ethylene treated fruit ([1]; 100 nLL^-1 fumigation 18 hr): 0.80 fold
- difference between effects of BC (100 nL L^-1) and 1-MCP (1000 nL L^-1) on climacteric ethylene and respiration ([1]; 'Tegan Blue' and 'Fortune' plum, 'Arctic Pride' nectarine, ethylene and respiration): non-significant differences
- climacteric respiration, suppressed, fold versus the solely ethylene treated fruit ([2]; 100 nLL^-1 fumigation + ethylene): 0.83 fold
- level of ethylene, suppressed, fold versus the solely ethylene treated fruit [3]: 0.63 fold
- rate of flower/bud abscission [4]: 6.05%
- stability [5]: stable at room temperature for several months
- respiration climacteric, suppression, fold in comparison to the solely ethylene treated fruit ([6]; 50 nLL^-1 fumigation + ethylene): 0.77 fold
- respiration climacteric, suppression, fold in comparison to the solely ethylene treated fruit ([6]; 50 nLL^-1 fumigation, no ethylene exposure): 0.71 fold
- solubility in water [7]: only partially soluble in water
- rate of flower/bud abscission ([8]; 50 nL L^-1 fumigation followed by ethylene): 22.43%
- rate of flower/bud abscission ([8]; 100 nL L^-1 fumigation followed by ethylene): 28.40%

SMILES: CC1=CC1 [1-MCP, 1-Methylcyclopropene, reference compound]
- level of climacteric ethylene, suppressed, fold in comparison to the solely ethylene treated fruit ([1]; 1000 nLL^-1 fumigation 18 hr): 0.70 fold
- climacteric respiration, suppressed, fold versus the solely ethylene treated fruit ([2]; 1000 μLL^-1 (so in the source) fumigation + ethylene): 0.77 fold
- stability [9]: highly unstable
